Columns and labels:
Format in all cases: cell-based
[1] = tested on: senescent IMR90 cells; experiment: Senescence assay, viability of senescent IMR90 cells; settings: Homo sapiens, IMR-90; chemotherapy-induced senescent IMR90 cells, 24-72 hours with compound, viability by CellTiter-Glo or XTT; read-out: IMR90_SEN IC50 (Absolute IC50 average)
Procedure: (§1) Cells were maintained in DMEM media (high glucose, 4 mM L-glutamine, no sodium pyruvate) supplemented with 10% fetal bovine serum in a humidified incubator at 37° C. with 5% carbon dioxide. Senescence was induced via treatment with a sublethal concentration of chemotherapy (bleomycin, gemcitabine, doxorubicin, 5-fluorouridine), followed by a rest period without chemotherapy similarly to what is reported by others in the field (e.g., Aoshiba et al., 2003 Eur Respir J 22:436-443). Senescence was qualified by low EdU (5-ethynyl-2′-deoxyuridine) incorporation and high SA-β-Gal (senescence-associated beta-galactosidase) staining compared to proliferating untreated cells. Senescent cells were plated into 96-well plates at a density of 5-15,000 cells/well. The next day, compounds were added in duplicate across ten different concentrations spanning roughly four Log 10 units. Cells were incubated with the compounds for 24-72 hours, at which point viability is quantified using CellTiter-Glo (Promega) or XTT (R&D Systems). The viability for treated cells was determined relative to untreated control cells. The log of the compound concentration vs. normalized mean viability was a fit to a four parameters Hill function with variable slope. The bottom was constrained to be greater than zero. The X mean value for Y=50 interpolated to determine the absolute IC50. […]

[2] = tested on: senescent HEPG2 cells; experiment: Senescence assay, viability of senescent HEPG2 cells; settings: Homo sapiens; chemotherapy-induced senescent HEPG2 cells, 24-72 hours with compound, viability by CellTiter-Glo or XTT; read-out: HEPG2_SEN IC50 (Absolute IC50 average)
Procedure: as §1

[3] = tested on: senescent A549 cells; experiment: Senescence assay, viability of senescent A549 cells; settings: Homo sapiens; chemotherapy-induced senescent A549 cells, 24-72 hours with compound, viability by CellTiter-Glo or XTT; read-out: A549_SEN IC50 (Absolute IC50 average)
Procedure: as §1

[4] = tested on: senescent NHDF cells; experiment: Senescence assay, viability of senescent NHDF cells; settings: Homo sapiens; chemotherapy-induced senescent NHDF cells, 24-72 hours with compound, viability by CellTiter-Glo or XTT; read-out: NHDF_SEN IC50 (Absolute IC50 average)
Procedure: as §1

| Compound | IC50 [1] | IC50 [2] | IC50 [3] | IC50 [4] |
| --- | --- | --- | --- | --- |
| C#CC(F)(F)[C@]1(O)CC[C@H]2[C@@H]3CCC4=CC(=O)CCC4=C3[C@@H](c3ccc(O)cc3)C[C@@]21C [Compound 1, (1S,3aS,3bS,10R,11aS)-1-(1,1-difluoroprop-2-yn-1-yl)-1-hydroxy-10-(4-hydroxyphenyl)-11a-methyl-2H,3H,3aH,3bH,4H,5H,8H,9H,10H,11H-cyclopenta[a]phenanthren-7-one] | 100 to 1000 nM | 100 to 1000 nM | 1000 to 10000 nM | 100 to 1000 nM |
| C#CC(=O)[C@]1(O)CC[C@H]2[C@@H]3CCC4=CC(=O)CCC4=C3[C@@H](c3ccc(C4CC4)cc3)C[C@@]21C [Compound 2, (8S,11R,13S,14S,17S)-11-(4-cyclopropylphenyl)-17-hydroxy-13-methyl-17-propioloyl-1,2,6,7,8,11,12,13,14,15,16,17-dodecahydro-3H-cyclopenta[a]phenanthren-3-one] | – | – | – | 1000 to 10000 nM |

Reference: patent publication US20250296951A1, “GPX4 Inhibitors and Senolytic Compounds and Uses Thereof” (Rubedo Life Sciences, Inc., priority 2024, published 2025)
